Several values for one entry are separate records, joined by “and”; a condition that tells them apart may be missing. Equal values may be shown once. Read-outs that look alike come from different tables or passages of the source.
Tests used:
[1] = test system: CYP1A2; test: CYP selective diagnostic inhibition studies in HLM, furafylline; type: in vitro ADME, human; settings: furafylline 10 µmol/L
Method: (§1) Reactions were carried out in triplicate in 96 well plates. Each reaction was measured at 2 time points, that is at 0 and 30 minutes. […] Furafylline, KTZ, ticlopidine, and quinidine were used as diagnostic inhibitors for CYP 1A2, 3A4/5, 2C19 and 2D6, respectively. The reactions were initiated by addition of NADPH after a pre‐incubation of 5 minutes at 37°C. All reactions were terminated by the addition of 150 µL ice‐cold ACN. Internal standard (0.2 µmol/L DPZ) was added to ACN prior to termination of the assay. This was followed by centrifugation at 4500 g for 20 minutes. An aliquot (50 µL) supernatant was collected and 5 µL was injected and analyzed by liquid chromatography/tandem mass spectrometry (LC/MS/MS). The percent effect of each inhibitor was the estimated contribution of the inhibited CYP calculated using the relationship below: %contribution=amount remaining with inhibitor‐amount remaining without inhibitor/amount remaining without inhibitor×100.

[2] = test system: CYP2C19; test: CYP selective diagnostic inhibition studies in HLM, ticlopidine; type: in vitro ADME, human; settings: ticlopidine 10 µmol/L
Method: as §1

[3] = test system: CYP3A4/5; test: CYP selective diagnostic inhibition studies in HLM, ketoconazole; type: in vitro ADME, human; settings: ketoconazole 10 µmol/L
Method: as §1

[4] = Intrinsic clearance, substrate depletion approach; type: in vitro ADME, human; settings: human, human liver microsomes, pH 7.4; HLM, 1 µmol/L substrate
Method: (§2) The generic conditions were previously described by Masimirembwa and co‐workers. ^24 , ^25 Each reaction mixture consisted of substrate incubated with appropriate enzyme, substrate, and NADPH in potassium phosphate buffer pH 7.4 in a final volume of 200 µL. The substrate was diluted to 40% ACN so that the percent organic component in the final solution was maintained at 1%. The reactions were quenched with 3 volumes of stop solution containing ACN and 0.8% formic acid at 0, 5, 10, 20, 30, 40, and 60 minutes. This was followed by centrifugation at 4500 g for 20 minutes. An aliquot (50 µL) supernatant was collected and diluted (1:1) in water prior to LC‐MS/MS analysis.
(§3) Each reaction was monitored over 7 time points.
(§4) The well‐stirred model was used to estimate the hepatic clearance (CLH) due to metabolism.

[5] = test system: HLM; test: Intrinsic clearance, substrate depletion approach; type: in vitro ADME, human; settings: substrate depletion
Method: as §2, §3, §4

[6] = Simcyp prediction of total hepatic clearance; design: species or system human
Method: The clearance of the incubation mixture was expressed as μL/min/pmol for rCYP.
as §4

[7] = PZQ-ketoconazole DDI pharmacokinetic study in healthy volunteers; type: in vivo, human; settings: for AUC(0-inf) / AUC / CL/F / k el / half-life / Tmax / Vd/F: male, human, plasma
Method: Plasma samples were obtained from the AiBST biobank. […] Each participant served as their own control. Each participant provided written informed consent to take part in the study and the study was carried out according to Helsinki Declaration of 1975, as revised in 2008. The study was approved by the Medical Research Council of Zimbabwe (MRCZ) and the Medicines Controls Authority of Zimbabwe (MCAZ). […] The samples were vortexed for 30 seconds and left under gentle agitation for 25 minutes. […] From the supernatant, 20 μL was injected onto the chiral HPLC system for analysis. […] Detection was done using a UV diode array detector at 210 nm. […] The data were gathered and processed using Agilent OpenLab CDS for Chemstation software version 1.9. Linear calibration curves were plotted as concentration vs peak area ratio for analyte to IS with no weighting. […] The pharmacokinetic (PK) analysis was performed using the WinNonlin program, version 8.2 (Pharsight Corp). […] A non-compartmental approach was used for curve plotting and parameter calculation. The area under the curve (AUC) from time 0 to the last sampling time point (AUCt) was computed using the log-linear trapezoidal rule. The linear trapezoidal rule was used for the ascending part of the PK curve, while the log trapezoidal rule was used for the descending part of the graph. The AUC extrapolated to infinite time was calculated as AUC∞ = AUCt + Ct/K el where Ct is the concentration of the last sample taken and K el is the terminal elimination rate constant. The terminal elimination rate constant K el was determined by least squares regression analysis in the terminal phase of the semi log concentration-time curve. […] Statistical analysis was performed using the GraFit software (version 3.0, Erithacus Software Limited). […] Analysis of variance (ANOVA) was performed on the AUC and C max after transformation of the data to their natural logarithmic (ln) values.

[8] = molecular target: T1, CYP2C19 (Homo sapiens, UniProt P33261); test: Intrinsic clearance, substrate depletion approach; settings: rCYP2C19, substrate depletion
T1 sequence (P33261 whole entry): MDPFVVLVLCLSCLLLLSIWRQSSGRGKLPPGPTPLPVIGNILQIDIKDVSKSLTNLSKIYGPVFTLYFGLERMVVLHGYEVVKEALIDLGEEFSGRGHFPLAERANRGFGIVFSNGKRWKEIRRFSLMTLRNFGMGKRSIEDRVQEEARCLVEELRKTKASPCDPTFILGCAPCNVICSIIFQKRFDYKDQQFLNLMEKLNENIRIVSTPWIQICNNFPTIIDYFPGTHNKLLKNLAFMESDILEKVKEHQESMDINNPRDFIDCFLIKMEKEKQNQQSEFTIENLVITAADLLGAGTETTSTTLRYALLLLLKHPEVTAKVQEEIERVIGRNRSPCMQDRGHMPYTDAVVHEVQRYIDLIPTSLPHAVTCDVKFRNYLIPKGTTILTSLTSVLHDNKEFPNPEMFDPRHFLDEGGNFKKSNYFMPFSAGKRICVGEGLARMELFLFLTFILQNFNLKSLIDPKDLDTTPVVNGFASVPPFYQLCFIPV

[9] = molecular target: T1, CYP2C19; test: Enzyme kinetics of hydroxylated metabolites formation; type: in vitro ADME; design: purchased CYPEX CYP008; host or cells: Escherichia coli; settings: CYP2C19, formation of cis‐4‐OH‐PZQ
Method: The reactions were carried out in duplicate at each time point. Incubation conditions used for the determination of K M and V max were optimized for linearity with respect to time and protein concentrations. […] Metabolites were analyzed by LC‐MS/MS as described below. The K M and V max values of each marker substrate were determined using nonlinear least squares regression analysis in GraFit software (version 3.0, Erithacus Software Limited) and SigmaPlot Enzyme Kinetics Module for Windows 7.0 (SPSS, Inc).
as §4

[10] = PZQ + ketoconazole vs PZQ alone
[11] = single oral 20 mg/kg PZQ alone, n = 9, listed as R‐Praziquantel, 20 mg/kg

**Q.** Which results are given for `O=C(C1CCCCC1)N1CC(=O)N2CCc3ccccc3[C@@H]2C1` [R‐PZQ, R‐Praziquantel]?
**A.** Contribution of CYP1A2 [1]: 61%; Contribution of CYP2C19 [2]: 64%; Contribution of CYP3A4/5 [3]: 33%; half-life at 1 µmol/L [4]: 0.191 h; Predicted CLuH,int ([5]; HLM): 172.0 mL/min/kg; Predicted CLH ([5]; HLM, well‐stirred model): 13.06 mL/min/kg; Clearance class, HLM‐mediated [5]: high; Predicted total CLH (Simcyp) ([6]; metabolite formation assay): 9.777 mL/min/kg; Predicted total CLH (Simcyp) ([6]; substrate depletion assay): 6.923 mL/min/kg; Clearance/F, treatment mean (SD) ([7]; 20 mg/kg PZQ plus 200 mg ketoconazole, n = 9): 1146 (992.1) L/h; Decrease of mean C max with KTZ ([7]; PZQ + KTZ vs PZQ alone): 11.85%; AUCinf, difference observed % [7, 10]: 9% and 9.26%; AUCt0‐tlast, difference observed % [7, 10]: −14.68%; C max, difference observed % [7, 10]: −11.85%; Clearance/F, difference observed % [7, 10]: 26.99%; Elimination rate constant, difference observed % [7, 10]: −4.350%; Half life, difference observed % [7, 10]: 79.64%; T max, difference observed % [7, 10]: −46.33%; V d/F, difference observed % [7, 10]: 74.87%; AUCinf, difference observed % ([7]; PZQ + ketoconazole vs PZQ alone, listed as R‐Praziquantel): 9.290%; AUC(0-inf) ([7]; oral, 20 mg/kg, 20 mg/kg PZQ plus 200 mg ketoconazole, n = 9, read-out: AUCinf, treatment geo mean): 1290 ng·h/mL; AUC(0-inf) ([7]; oral, 20 mg/kg, 20 mg/kg PZQ plus 200 mg ketoconazole, n = 9, read-out: AUCinf, treatment mean (SD)): 1470 ng·h/mL; AUC ([7]; oral, 20 mg/kg, 20 mg/kg PZQ plus 200 mg ketoconazole, n = 9, read-out: AUCt0‐tlast, treatment geo mean): 945 ng·h/mL; CL/F ([7]; oral, 20 mg/kg, 20 mg/kg PZQ plus 200 mg ketoconazole, n = 9, read-out: Clearance/F, treatment geo mean (converted)): 15300 mL/min; CL/F ([7]; oral, 20 mg/kg, 20 mg/kg PZQ plus 200 mg ketoconazole, n = 9, read-out: Clearance/F, treatment mean (SD) (converted)): 19100 mL/min; k el ([7]; oral, 20 mg/kg, 20 mg/kg PZQ plus 200 mg ketoconazole, n = 9, read-out: Elimination rate constant, treatment geo mean (converted)): 4.44e-05 s⁻¹; k el ([7]; oral, 20 mg/kg, 20 mg/kg PZQ plus 200 mg ketoconazole, n = 9, read-out: Elimination rate constant, treatment mean (SD) (converted)): 6.11e-05 s⁻¹; half-life ([7]; oral, 20 mg/kg, 20 mg/kg PZQ plus 200 mg ketoconazole, n = 9, read-out: Half life, treatment geo mean (converted)): 4.14 h; half-life ([7]; oral, 20 mg/kg, 20 mg/kg PZQ plus 200 mg ketoconazole, n = 9, read-out: Half life, treatment mean (SD) (converted)): 6 h; Tmax ([7]; oral, 20 mg/kg, 20 mg/kg PZQ plus 200 mg ketoconazole, n = 9, read-out: T max, treatment geo mean): 1.53 h; Tmax ([7]; oral, 20 mg/kg, 20 mg/kg PZQ plus 200 mg ketoconazole, n = 9, read-out: T max, treatment mean (SD)): 1.61 h; Vd/F ([7]; oral, 20 mg/kg, 20 mg/kg PZQ plus 200 mg ketoconazole, n = 9, read-out: V d/F, treatment geo mean): 5480 L; Vd/F ([7]; oral, 20 mg/kg, 20 mg/kg PZQ plus 200 mg ketoconazole, n = 9, read-out: V d/F, treatment mean (SD)): 7880 L; AUC ([7]; oral, 20 mg/kg, AUC, PZQ alone): 1350 ± 1470 ng·h/mL; AUC ([7]; oral, 20 mg/kg, read-out: AUC from the in vivo pharmacokinetic study): 2400 ng·h/mL; AUC ([7]; oral, AUC, PZQ + KTZ): 1470 ± 767 ng·h/mL; AUC(0-inf) ([7]; po, 20 mg/kg, single oral 20 mg/kg PZQ alone, n = 9, read-out: AUCinf, reference geo mean): 1300 ng·h/mL; AUC(0-inf) ([7]; po, 20 mg/kg, single oral 20 mg/kg PZQ alone, n = 9, read-out: AUCinf, reference mean (SD)): 1340 ng·h/mL; AUC ([7]; po, 20 mg/kg, single oral 20 mg/kg PZQ alone, n = 9, read-out: AUCt0‐tlast, reference geo mean): 1120 ng·h/mL; AUC ([7]; po, 20 mg/kg, single oral 20 mg/kg PZQ alone, n = 9, read-out: AUCt0‐tlast, reference mean (SD)): 1240 ng·h/mL; CL/F ([7]; po, 20 mg/kg, single oral 20 mg/kg PZQ alone, n = 9, read-out: Clearance/F, reference geo mean (converted)): 14600 mL/min; CL/F ([7]; po, 20 mg/kg, single oral 20 mg/kg PZQ alone, n = 9, read-out: Clearance/F, reference mean (SD) (converted)): 15000 mL/min; k el ([7]; po, 20 mg/kg, single oral 20 mg/kg PZQ alone, n = 9, read-out: Elimination rate constant, reference geo mean (converted)): 6.11e-05 s⁻¹; k el ([7]; po, 20 mg/kg, single oral 20 mg/kg PZQ alone, n = 9, read-out: Elimination rate constant, reference mean (SD) (converted)): 6.39e-05 s⁻¹; half-life ([7]; po, 20 mg/kg, single oral 20 mg/kg PZQ alone, n = 9, read-out: Half life, reference geo mean (converted)): 3.21 h; half-life ([7]; po, 20 mg/kg, single oral 20 mg/kg PZQ alone, n = 9, read-out: Half life, reference mean (SD) (converted)): 3.34 h; Tmax ([7]; po, 20 mg/kg, single oral 20 mg/kg PZQ alone, n = 9, read-out: T max, reference geo mean): 2.59 h; Tmax ([7]; po, 20 mg/kg, single oral 20 mg/kg PZQ alone, n = 9, read-out: T max, reference mean (SD)): 3 h; Vd/F ([7]; po, 20 mg/kg, single oral 20 mg/kg PZQ alone, n = 9, read-out: V d/F, reference geo mean): 4050 L; Vd/F ([7]; po, 20 mg/kg, single oral 20 mg/kg PZQ alone, n = 9, read-out: V d/F, reference mean (SD)): 4510 L; Clearance/F, reference mean (SD) ([7]; single oral 20 mg/kg PZQ alone, n = 9, 20 mg/kg): 902.09 ± 264 L/h; C max, reference mean (SD) [7, 11]: 313.1 (131.1) ng/mL; Clearance/F, reference mean (SD) [7, 11]: 902.1 (264.9) L/h; Predicted CLH [8]: 3.904 mL/min/kg; Predicted CLuH,int [8]: 19.73 mL/min/kg; CLuH,int [9]: 4.60 mL/min/kg and 4.600 mL/min/kg
